This assay has as its system L1210 leukemia ip in BDF1 mice, survival T/C. Description: NCI In Vivo Anticancer Drug Screen. Data for tumor model L1210 Leukemia (intraperitoneal) in B6D2F1 (BDF1) mice. To be noted: endpoint: mean survival time, higher = longer survival. In a few lines: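 Transplantable tumor model; survival measured in treated vs vehicle control mice. Value = treated/control.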
[1] abbreviates: dose: 50.0 mg/kg/injection, schedule: Q01DX001 (ip), vehicle: saline.
Where [2] appears, read: dose: 100.0 mg/kg/injection, schedule: Q01DX001 (ip), vehicle: saline.
[3] abbreviates: dose: 200.0 mg/kg/injection, schedule: Q01DX001 (ip), vehicle: saline.
[4] abbreviates: dose: 400.0 mg/kg/injection, schedule: Q01DX001 (ip), vehicle: saline.
[5] abbreviates: dose: 100.0 mg/kg/injection, schedule: Q04DX003 (ip), vehicle: saline with Tween-80.
[6] abbreviates: dose: 200.0 mg/kg/injection, schedule: Q04DX003 (ip), vehicle: saline with Tween-80.
Where [7] appears, read: dose: 400.0 mg/kg/injection, schedule: Q04DX003 (ip), vehicle: saline with Tween-80.
Where [8] appears, read: dose: 100.0 mg/kg/injection, schedule: Q04DX003 (ip), vehicle: Klucel (hydroxypropylcellulose) (HPC).
The mark [9] stands for this setting: dose: 100.0 mg/kg/injection, schedule: Q01DX009 (ip), vehicle: saline with Tween-80.
[10] abbreviates: dose: 200.0 mg/kg/injection, schedule: Q01DX009 (ip), vehicle: saline with Tween-80.
The mark [11] stands for this setting: dose: 400.0 mg/kg/injection, schedule: Q01DX009 (ip), vehicle: saline with Tween-80.

Where “and” joins values, the source holds several entries; their conditions need not be identical. Equal entries are not always repeated. Toxic doses and inconclusive results are not listed.

`COc1cc(CC2c3ccccc3CC[N+]2(C)C)c(Oc2cc(CC3c4ccccc4CC[N+]3(C)C)ccc2OC)cc1OC` (stereo unspecified): the T/C by setting is: (dose: 0.78 mg/kg/injection, schedule: Q01DX009 (ip), vehicle: Klucel (hydroxypropylcellulose) (HPC)) 103 % of control; (dose: 1.56 mg/kg/injection, schedule: Q01DX009 (ip), vehicle: Klucel (hydroxypropylcellulose) (HPC)) 97 % of control; (dose: 3.13 mg/kg/injection, schedule: Q01DX009 (ip), vehicle: Klucel (hydroxypropylcellulose) (HPC)) 100 % of control.

Consider `COc1ccc(CN2CCCN(Cc3ccc(OC)cc3OC)C2c2ccncc2)c(OC)c1`, for which the T/C by setting is: under setting [1], 94 % of control; under setting [2], 97 % of control; under setting [3], 105 % of control; under setting [4], 103 % of control.

`Cc1cc(Cl)ccc1OC(=O)COc1cc(Cl)c(Cl)cc1Cl`: the T/C (dose: 1.56 mg/kg/injection, schedule: Q04DX002 (ip), vehicle: Klucel (hydroxypropylcellulose) (HPC)) was 108 % of control; the T/C (dose: 3.13 mg/kg/injection, schedule: Q04DX002 (ip), vehicle: Klucel (hydroxypropylcellulose) (HPC)) was 108 % of control; the T/C (dose: 6.25 mg/kg/injection, schedule: Q04DX002 (ip), vehicle: Klucel (hydroxypropylcellulose) (HPC)) was 105 % of control; the T/C (dose: 12.5 mg/kg/injection, schedule: Q04DX002 (ip), vehicle: Klucel (hydroxypropylcellulose) (HPC)) is 95 % of control; the T/C (dose: 25.0 mg/kg/injection, schedule: Q04DX002 (ip), vehicle: Klucel (hydroxypropylcellulose) (HPC)) was 100 % of control; the T/C (dose: 50.0 mg/kg/injection, schedule: Q04DX002 (ip), vehicle: Klucel (hydroxypropylcellulose) (HPC)) is 100 % of control.

Take `Cc1ccc(C)c2c1c1ccccc1n2N=O`: the T/C is, setting by setting: under setting [1], 97 % of control; under setting [2], 100 % of control; under setting [3], 100 % of control; under setting [4], 114 % of control.

`CCC(=O)Nc1cccc(OC(=O)NC2CCCCC2)c1`: the T/C by setting is: under setting [5], 102 % of control; under setting [6], 98 % of control; under setting [7], 91 % of control.

As to `N#Cc1cncc(-c2ccccc2)c1`, the T/C was 95 % of control (dose: 25.0 mg/kg/injection, schedule: Q04DX003 (ip), vehicle: Klucel (hydroxypropylcellulose) (HPC)); 95 % of control (dose: 50.0 mg/kg/injection, schedule: Q04DX003 (ip), vehicle: Klucel (hydroxypropylcellulose) (HPC)); 89 % of control under setting [8].

`CC1=CC(=O)OC1=O` (tested in a mixture with another compound): the T/C (dose: 37.5 mg/kg/injection, schedule: Q01DX009 (ip), vehicle: carboxymethylcellulose (CMC)) is 117 % of control; the T/C (dose: 75.0 mg/kg/injection, schedule: Q01DX001 (ip), vehicle: carboxymethylcellulose (CMC)) was 109 % of control; the T/C (dose: 150.0 mg/kg/injection, schedule: Q01DX001 (ip), vehicle: carboxymethylcellulose (CMC)) was 118 % of control.

As for `NC(=S)N/N=C/C(=O)O`, the T/C runs as follows: under setting [2], 91 % of control; under setting [3], 89 % of control; under setting [4], 89 % of control.

With `CN(Cc1ccc2nc(N)nc(N)c2c1)c1ccc(C(=O)NC(CCC(=O)O)C(=O)O)cc1` (stereo unspecified), the T/C is, setting by setting: (dose: 0.12 mg/kg/injection, schedule: Q01DX009 (ip), vehicle: other) 123 % of control; (dose: 0.5 mg/kg/injection, schedule: Q01DX009 (ip), vehicle: other) 192 % of control; (dose: 1.0 mg/kg/injection, schedule: Q01DX009 (ip), vehicle: other) 190 % of control; (dose: 1.25 mg/kg/injection, schedule: Q01DX009 (ip), vehicle: saline) 154 % of control; (dose: 2.1 mg/kg/injection, schedule: Q01DX009 (ip), vehicle: other) 101 % of control; (dose: 2.5 mg/kg/injection, schedule: Q01DX009 (ip), vehicle: saline) 113 % of control. The T/C (dose: 5.0 mg/kg/injection, schedule: Q01DX001 (ip), vehicle: other) was 151 % of control; the T/C (dose: 5.0 mg/kg/injection, schedule: Q01DX009 (ip), vehicle: saline) was 97 % of control; the T/C (dose: 6.6 mg/kg/injection, schedule: Q01DX001 (ip), vehicle: other) was 119 % of control; the T/C (dose: 6.6 mg/kg/injection, schedule: Q01DX001 (ip), vehicle: saline) was 119 % of control; the T/C (dose: 10.0 mg/kg/injection, schedule: Q01DX001 (ip), vehicle: other) is 159 % of control; the T/C (dose: 15.0 mg/kg/injection, schedule: Q01DX001 (ip), vehicle: other) was 154 % of control.

Consider `CCSC(SCC)C(OC(C)=O)C(OC(C)=O)C(OC(C)=O)C(CNC(C)=O)OC(C)=O` (stereo unspecified), for which the T/C runs as follows: (dose: 25.0 mg/kg/injection, schedule: Q04DX003 (ip), vehicle: saline with Tween-80) 97 % of control; (dose: 50.0 mg/kg/injection, schedule: Q04DX003 (ip), vehicle: saline with Tween-80) 94 % of control; under setting [5], 93 % of control and 89 % of control.

With `CN(C)C1c2ccccc2-c2ccc(N)cc21` (stereo unspecified), for the setting “dose: 100.0 mg/kg/injection, schedule: Q01DX001 (ip), vehicle: carboxymethylcellulose (CMC)”, the T/C is 94 % of control.

For the compound `CC(C)CCCC(C)C1CCC2C3CC=C4CC(OC(=O)CCCC5CCCCC5)CCC4(C)C3CCC12C` (stereo unspecified), the T/C is, setting by setting: under setting [8], 94 % of control; (dose: 200.0 mg/kg/injection, schedule: Q04DX003 (ip), vehicle: Klucel (hydroxypropylcellulose) (HPC)) 94 % of control; (dose: 400.0 mg/kg/injection, schedule: Q04DX003 (ip), vehicle: Klucel (hydroxypropylcellulose) (HPC)) 94 % of control.

Regarding `CC1CC2(C)C(CC1=O)CC(C)C1C3CCC(O)C3(C)CCC12` (stereo unspecified), the T/C reads like this: under setting [9], 92 % of control; under setting [10], 96 % of control; under setting [11], 94 % of control.

For `COc1ccc(C(C#N)C(O)(c2ccccc2)c2ccccc2)cc1` (stereo unspecified), the T/C under setting [1] was 104 % of control, the T/C under setting [2] was 107 % of control, the T/C under setting [3] was 98 % of control and the T/C under setting [4] is 93 % of control.

For `COC(=O)NC1CCCCC1I` (stereo unspecified), the T/C reads like this: under setting [9], 89 % of control; under setting [5], 95 % of control; under setting [10], 101 % of control; under setting [6], 98 % of control; under setting [11], 96 % of control; under setting [7], 93 % of control.

As for `CC(=O)OC1CCCCC1NC(=O)N(CCCl)N=O` (stereo unspecified), the T/C by setting is: (dose: 27.0 mg/kg/injection, schedule: Q01DX001 (ip), vehicle: carboxymethylcellulose (CMC)) 333 % of control; (dose: 40.0 mg/kg/injection, schedule: Q01DX001 (ip), vehicle: carboxymethylcellulose (CMC)) 423 % of control; (dose: 60.0 mg/kg/injection, schedule: Q01DX001 (ip), vehicle: carboxymethylcellulose (CMC)) 422 % of control; (dose: 90.0 mg/kg/injection, schedule: Q01DX001 (ip), vehicle: carboxymethylcellulose (CMC)) 170 % of control.

As for `CC1=N/C(=N\c2nc3ccccc3[nH]2)NC(=O)CC1`, the T/C was 101 % of control (dose: 75.0 mg/kg/injection, schedule: Q01DX001 (ip), vehicle: saline) and 93 % of control (dose: 150.0 mg/kg/injection, schedule: Q01DX001 (ip), vehicle: saline).

On to `C=CCOP(=O)(N1CC1C)N1CC1C` (stereo unspecified), for which the T/C is 105 % of control (dose: 29.0 mg/kg/injection, schedule: Q01DX015 (ip), vehicle: saline); 120 % of control (dose: 44.0 mg/kg/injection, schedule: Q01DX015 (ip), vehicle: saline); 114 % of control (dose: 66.0 mg/kg/injection, schedule: Q01DX015 (ip), vehicle: saline); 108 % of control (dose: 89.0 mg/kg/injection, schedule: Q01DX001 (ip), vehicle: saline); 152 % of control under setting [3]; 115 % of control (dose: 300.0 mg/kg/injection, schedule: Q01DX001 (ip), vehicle: saline). The T/C under setting [4] is 86 % of control.

Turning to `C=CCSc1nc2c(N)ncnc2n1C1OC(CO)C(O)C1O` (stereo unspecified), the T/C reads like this: (dose: 100.0 mg/kg/injection, schedule: Q01DX005 (ip), vehicle: saline) 103 % of control; (dose: 200.0 mg/kg/injection, schedule: Q01DX005 (ip), vehicle: saline) 98 % of control.

The values above are taken from PubChem BioAssay AID248 (DTP/NCI, 2004).
